Test results: ChEMBL document CHEMBL4190399, “Spiro[pyrrolidine-3,3'-oxindoles] as 5-HT7 receptor ligands” (Bioorg Med Chem Lett, 2018)

Organism: Homo sapiens
Assay: Selectivity index, ratio of Ki for human 5-HT6 receptor expressed in HEK293 cell membranes to Ki for human 5-HT7b receptor expressed in HEK293 cell membranes
Assay type: cell-based

| SMILES | Ratio Ki |
| --- | --- |
| O=C1Nc2ccccc2C12CCN(CCCN1CCN(c3ccc(Cl)cc3)CC1)C2 (centres undefined) | 83 |
| O=C1Nc2ccccc2C12CCN(CCN1CCC(Oc3ccc(Cl)cc3)CC1)C2 (centres undefined) | 14 |
| O=C(c1ccc(Cl)cc1)N1CCN(CCN2CCC3(C2)C(=O)Nc2ccccc23)CC1 (centres undefined) | 14.6 |
| O=C1Nc2ccccc2C12CCN(CCN1CCC(c3ccc(F)cc3)CC1)C2 (centres undefined) | 19.2 |
| O=C1Nc2ccccc2C12CCN(CCN1CCN(c3ccc(Cl)c(Cl)c3)CC1)C2 (centres undefined) | 29.8 |
| O=C1Nc2ccccc2C12CCN(CCN1CCC(c3ccc(Cl)cc3)CC1)C2 (centres undefined) | 16.1 |
| O=C1Nc2ccccc2C12CCN(CCN1CCN(c3cccc(Cl)c3)CC1)C2 (centres undefined) | 36.5 |
| O=C1Nc2ccccc2C12CCN(CCN1CCN(c3ccccc3Cl)CC1)C2 (centres undefined) | 11.6 |
| O=C1Nc2ccccc2C12CCN(CCN1CC=C(c3ccc(F)cc3)CC1)C2 (centres undefined) | 146 |
| O=C1Nc2ccccc2C12CCN(CCN1CCN(c3ccccc3)CC1)C2 (centres undefined) | 65.6 |
| O=C1Nc2ccccc2C12CCN(CCN1CCN(c3ccc(F)cc3)CC1)C2 (centres undefined) | 226 |
| O=C1Nc2ccccc2C12CCN(CCN1CCN(c3ccc(Cl)cc3)CC1)C2 (centres undefined) | 163 |

The molecules below were run against 5-hydroxytryptamine receptor 2A (Homo sapiens, UniProt P28223) (assay: Displacement of [3H]-Ketanserin from human 5-HT2A receptor expressed in CHO-K1 cell membranes after 1.5 hrs by microbeta scintillation counting analysis).
5-hydroxytryptamine receptor 2A, sequence (P28223 whole entry): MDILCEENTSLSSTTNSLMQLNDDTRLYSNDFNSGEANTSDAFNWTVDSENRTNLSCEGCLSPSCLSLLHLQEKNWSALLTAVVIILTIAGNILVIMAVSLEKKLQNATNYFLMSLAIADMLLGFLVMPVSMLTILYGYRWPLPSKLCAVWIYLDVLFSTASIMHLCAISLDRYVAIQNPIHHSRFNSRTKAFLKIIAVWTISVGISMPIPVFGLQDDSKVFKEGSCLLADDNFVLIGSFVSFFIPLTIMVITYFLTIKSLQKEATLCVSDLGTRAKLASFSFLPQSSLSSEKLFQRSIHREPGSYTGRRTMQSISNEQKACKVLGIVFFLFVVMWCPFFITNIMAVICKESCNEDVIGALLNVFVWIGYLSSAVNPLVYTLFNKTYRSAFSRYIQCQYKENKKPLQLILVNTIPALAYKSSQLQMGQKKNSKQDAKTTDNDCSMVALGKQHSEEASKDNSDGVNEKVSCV

| SMILES | Ki [µM] |
| --- | --- |
| O=C1Nc2ccccc2C12CCN(CCCN1CCN(c3ccc(Cl)cc3)CC1)C2 (centres undefined) | 0.715 |
| O=C1Nc2ccccc2C12CCN(CCN1CCC(Oc3ccc(Cl)cc3)CC1)C2 (centres undefined) | 0.343 |
| O=C(c1ccc(Cl)cc1)N1CCN(CCN2CCC3(C2)C(=O)Nc2ccccc23)CC1 (centres undefined) | 17.3 |
| O=C1Nc2ccccc2C12CCN(CCN1CCC(c3ccc(F)cc3)CC1)C2 (centres undefined) | 0.259 |
| O=C1Nc2ccccc2C12CCN(CCN1CCN(c3ccc(Cl)c(Cl)c3)CC1)C2 (centres undefined) | 0.27 |
| O=C1Nc2ccccc2C12CCN(CCN1CCC(c3ccc(Cl)cc3)CC1)C2 (centres undefined) | 0.404 |
| O=C1Nc2ccccc2C12CCN(CCN1CCN(c3cccc(Cl)c3)CC1)C2 (centres undefined) | 0.351 |
| O=C1Nc2ccccc2C12CCN(CCN1CCN(c3ccccc3Cl)CC1)C2 (centres undefined) | 0.452 |
| O=C1Nc2ccccc2C12CCN(CCN1CC=C(c3ccc(F)cc3)CC1)C2 (centres undefined) | 0.075 |
| O=C1Nc2ccccc2C12CCN(CCN1CCN(c3ccccc3)CC1)C2 (centres undefined) | 0.496 |
| O=C1Nc2ccccc2C12CCN(CCN1CCN(c3ccc(F)cc3)CC1)C2 (centres undefined) | 0.059 |
| O=C1Nc2ccccc2C12CCN(CCN1CCN(c3ccc(Cl)cc3)CC1)C2 (centres undefined) | 0.068 |

Each molecule was assayed against 5-hydroxytryptamine receptor 6 (Homo sapiens, UniProt P50406) (assay: Displacement of [3H]-LSD from human 5-HT6 receptor expressed in HEK293 cell membranes after 1 hr at 37 degC by microbeta scintillation counting analysis).
5-hydroxytryptamine receptor 6, sequence (P50406 whole entry): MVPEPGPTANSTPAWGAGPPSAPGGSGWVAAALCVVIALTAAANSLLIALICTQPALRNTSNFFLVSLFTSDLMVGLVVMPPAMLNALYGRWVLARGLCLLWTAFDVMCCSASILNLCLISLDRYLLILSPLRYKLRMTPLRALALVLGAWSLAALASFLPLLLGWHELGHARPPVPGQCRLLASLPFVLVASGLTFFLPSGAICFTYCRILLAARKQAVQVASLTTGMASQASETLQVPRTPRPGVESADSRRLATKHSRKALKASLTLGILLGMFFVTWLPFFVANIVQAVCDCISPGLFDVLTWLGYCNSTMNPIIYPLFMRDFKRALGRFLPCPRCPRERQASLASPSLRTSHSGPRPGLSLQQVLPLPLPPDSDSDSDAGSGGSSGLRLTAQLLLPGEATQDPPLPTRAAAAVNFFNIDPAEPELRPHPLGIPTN

| SMILES | Ki [µM] |
| --- | --- |
| O=C1Nc2ccccc2C12CCN(CCCN1CCN(c3ccc(Cl)cc3)CC1)C2 (centres undefined) | 5.56 |
| O=C1Nc2ccccc2C12CCN(CCN1CCC(Oc3ccc(Cl)cc3)CC1)C2 (centres undefined) | 1.69 |
| O=C(c1ccc(Cl)cc1)N1CCN(CCN2CCC3(C2)C(=O)Nc2ccccc23)CC1 (centres undefined) | 7.75 |
| O=C1Nc2ccccc2C12CCN(CCN1CCC(c3ccc(F)cc3)CC1)C2 (centres undefined) | 5.28 |
| O=C1Nc2ccccc2C12CCN(CCN1CCN(c3ccc(Cl)c(Cl)c3)CC1)C2 (centres undefined) | 1.13 |
| O=C1Nc2ccccc2C12CCN(CCN1CCC(c3ccc(Cl)cc3)CC1)C2 (centres undefined) | 4.58 |
| O=C1Nc2ccccc2C12CCN(CCN1CCN(c3cccc(Cl)c3)CC1)C2 (centres undefined) | 2 |
| O=C1Nc2ccccc2C12CCN(CCN1CCN(c3ccccc3Cl)CC1)C2 (centres undefined) | 2.84 |
| O=C1Nc2ccccc2C12CCN(CCN1CC=C(c3ccc(F)cc3)CC1)C2 (centres undefined) | 6.27 |
| O=C1Nc2ccccc2C12CCN(CCN1CCN(c3ccccc3)CC1)C2 (centres undefined) | 6.56 |
| O=C1Nc2ccccc2C12CCN(CCN1CCN(c3ccc(F)cc3)CC1)C2 (centres undefined) | 4.74 |
| O=C1Nc2ccccc2C12CCN(CCN1CCN(c3ccc(Cl)cc3)CC1)C2 (centres undefined) | 4.74 |

These molecules were tested against T1, 5-hydroxytryptamine receptor 1A (Homo sapiens, UniProt P08908) (assay: Displacement of [3H]-8-OH-DPAT from human 5-HT1A receptor expressed in HEK293 cell membranes after 1 hr by microbeta scintillation counting analysis).
T1 sequence (P08908 whole entry): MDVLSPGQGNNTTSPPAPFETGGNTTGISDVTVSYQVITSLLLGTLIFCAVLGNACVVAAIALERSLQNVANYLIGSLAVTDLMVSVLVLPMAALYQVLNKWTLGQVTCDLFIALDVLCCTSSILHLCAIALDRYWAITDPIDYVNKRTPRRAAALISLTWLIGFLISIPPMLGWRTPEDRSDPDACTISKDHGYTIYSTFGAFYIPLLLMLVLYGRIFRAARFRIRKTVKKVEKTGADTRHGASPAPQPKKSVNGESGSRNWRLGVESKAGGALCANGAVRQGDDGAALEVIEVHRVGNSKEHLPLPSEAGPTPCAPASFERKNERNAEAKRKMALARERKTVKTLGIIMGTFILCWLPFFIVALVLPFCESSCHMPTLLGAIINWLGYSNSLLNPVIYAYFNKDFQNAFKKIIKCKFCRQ

| SMILES | Ki [µM] |
| --- | --- |
| O=C1Nc2ccccc2C12CCN(CCCN1CCN(c3ccc(Cl)cc3)CC1)C2 (centres undefined) | 2.89 |
| O=C1Nc2ccccc2C12CCN(CCN1CCC(Oc3ccc(Cl)cc3)CC1)C2 (centres undefined) | 13.8 |
| O=C(c1ccc(Cl)cc1)N1CCN(CCN2CCC3(C2)C(=O)Nc2ccccc23)CC1 (centres undefined) | 48.2 |
| O=C1Nc2ccccc2C12CCN(CCN1CCC(c3ccc(F)cc3)CC1)C2 (centres undefined) | 52 |
| O=C1Nc2ccccc2C12CCN(CCN1CCN(c3ccc(Cl)c(Cl)c3)CC1)C2 (centres undefined) | 4.05 |
| O=C1Nc2ccccc2C12CCN(CCN1CCC(c3ccc(Cl)cc3)CC1)C2 (centres undefined) | 14.9 |
| O=C1Nc2ccccc2C12CCN(CCN1CCN(c3cccc(Cl)c3)CC1)C2 (centres undefined) | 2.69 |
| O=C1Nc2ccccc2C12CCN(CCN1CCN(c3ccccc3Cl)CC1)C2 (centres undefined) | 1.1 |
| O=C1Nc2ccccc2C12CCN(CCN1CC=C(c3ccc(F)cc3)CC1)C2 (centres undefined) | 3.95 |
| O=C1Nc2ccccc2C12CCN(CCN1CCN(c3ccccc3)CC1)C2 (centres undefined) | 6 |
| O=C1Nc2ccccc2C12CCN(CCN1CCN(c3ccc(F)cc3)CC1)C2 (centres undefined) | 14.2 |
| O=C1Nc2ccccc2C12CCN(CCN1CCN(c3ccc(Cl)cc3)CC1)C2 (centres undefined) | 3.76 |

What follows are molecules tested against 5-hydroxytryptamine receptor 7 (Homo sapiens, UniProt P34969) (assay: Displacement of [3H]-5-CT from human 5-HT7b receptor expressed in HEK293 cell membranes after 1 hr at 37 degC by microbeta scintillation counting analysis).
5-hydroxytryptamine receptor 7, sequence (P34969 whole entry): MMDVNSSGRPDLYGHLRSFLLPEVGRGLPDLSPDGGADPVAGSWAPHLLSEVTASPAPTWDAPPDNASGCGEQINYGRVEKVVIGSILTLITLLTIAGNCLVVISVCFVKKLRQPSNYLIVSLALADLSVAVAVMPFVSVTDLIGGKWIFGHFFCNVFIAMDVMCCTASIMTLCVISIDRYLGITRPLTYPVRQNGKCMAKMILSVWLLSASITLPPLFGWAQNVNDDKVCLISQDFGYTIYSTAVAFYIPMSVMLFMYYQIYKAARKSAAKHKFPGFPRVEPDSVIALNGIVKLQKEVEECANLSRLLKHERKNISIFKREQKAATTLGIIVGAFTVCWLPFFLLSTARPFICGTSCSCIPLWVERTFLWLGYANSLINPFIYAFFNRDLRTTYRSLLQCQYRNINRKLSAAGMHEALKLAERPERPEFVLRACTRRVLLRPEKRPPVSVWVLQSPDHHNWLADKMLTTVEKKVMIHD

| SMILES | Ki [µM] |
| --- | --- |
| O=C1Nc2ccccc2C12CCN(CCCN1CCN(c3ccc(Cl)cc3)CC1)C2 (centres undefined) | 0.067 |
| O=C1Nc2ccccc2C12CCN(CCN1CCC(Oc3ccc(Cl)cc3)CC1)C2 (centres undefined) | 0.121 |
| O=C(c1ccc(Cl)cc1)N1CCN(CCN2CCC3(C2)C(=O)Nc2ccccc23)CC1 (centres undefined) | 0.529 |
| O=C1Nc2ccccc2C12CCN(CCN1CCC(c3ccc(F)cc3)CC1)C2 (centres undefined) | 0.275 |
| O=C1Nc2ccccc2C12CCN(CCN1CCN(c3ccc(Cl)c(Cl)c3)CC1)C2 (centres undefined) | 0.038 |
| O=C1Nc2ccccc2C12CCN(CCN1CCC(c3ccc(Cl)cc3)CC1)C2 (centres undefined) | 0.284 |
| O=C1Nc2ccccc2C12CCN(CCN1CCN(c3cccc(Cl)c3)CC1)C2 (centres undefined) | 0.055 |
| O=C1Nc2ccccc2C12CCN(CCN1CCN(c3ccccc3Cl)CC1)C2 (centres undefined) | 0.245 |
| O=C1Nc2ccccc2C12CCN(CCN1CC=C(c3ccc(F)cc3)CC1)C2 (centres undefined) | 0.043 |
| O=C1Nc2ccccc2C12CCN(CCN1CCN(c3ccccc3)CC1)C2 (centres undefined) | 0.1 |
| O=C1Nc2ccccc2C12CCN(CCN1CCN(c3ccc(F)cc3)CC1)C2 (centres undefined) | 0.021 |
| O=C1Nc2ccccc2C12CCN(CCN1CCN(c3ccc(Cl)cc3)CC1)C2 (centres undefined) | 0.029 |

Organism: Homo sapiens
Assay: Selectivity index, ratio of Ki for human 5-HT2A receptor expressed in CHO-K1 cell membranes to Ki for human 5-HT7b receptor expressed in HEK293 cell membranes
Assay type: cell-based

| SMILES | Ratio Ki |
| --- | --- |
| O=C1Nc2ccccc2C12CCN(CCCN1CCN(c3ccc(Cl)cc3)CC1)C2 (centres undefined) | 10.7 |
| O=C1Nc2ccccc2C12CCN(CCN1CCC(Oc3ccc(Cl)cc3)CC1)C2 (centres undefined) | 2.8 |
| O=C(c1ccc(Cl)cc1)N1CCN(CCN2CCC3(C2)C(=O)Nc2ccccc23)CC1 (centres undefined) | 32.8 |
| O=C1Nc2ccccc2C12CCN(CCN1CCC(c3ccc(F)cc3)CC1)C2 (centres undefined) | 0.9 |
| O=C1Nc2ccccc2C12CCN(CCN1CCN(c3ccc(Cl)c(Cl)c3)CC1)C2 (centres undefined) | 7.1 |
| O=C1Nc2ccccc2C12CCN(CCN1CCC(c3ccc(Cl)cc3)CC1)C2 (centres undefined) | 1.4 |
| O=C1Nc2ccccc2C12CCN(CCN1CCN(c3cccc(Cl)c3)CC1)C2 (centres undefined) | 6.4 |
| O=C1Nc2ccccc2C12CCN(CCN1CCN(c3ccccc3Cl)CC1)C2 (centres undefined) | 1.8 |
| O=C1Nc2ccccc2C12CCN(CCN1CC=C(c3ccc(F)cc3)CC1)C2 (centres undefined) | 1.7 |
| O=C1Nc2ccccc2C12CCN(CCN1CCN(c3ccccc3)CC1)C2 (centres undefined) | 5 |
| O=C1Nc2ccccc2C12CCN(CCN1CCN(c3ccc(F)cc3)CC1)C2 (centres undefined) | 2.8 |
| O=C1Nc2ccccc2C12CCN(CCN1CCN(c3ccc(Cl)cc3)CC1)C2 (centres undefined) | 2.3 |

Organism: Homo sapiens
Assay: Selectivity index, ratio of Ki for human 5-HT1A receptor expressed in HEK293 cell membranes to Ki for human 5-HT7b receptor expressed in HEK293 cell membranes
Assay type: cell-based

| SMILES | Ratio Ki |
| --- | --- |
| O=C1Nc2ccccc2C12CCN(CCCN1CCN(c3ccc(Cl)cc3)CC1)C2 (centres undefined) | 43.1 |
| O=C1Nc2ccccc2C12CCN(CCN1CCC(Oc3ccc(Cl)cc3)CC1)C2 (centres undefined) | 114 |
| O=C(c1ccc(Cl)cc1)N1CCN(CCN2CCC3(C2)C(=O)Nc2ccccc23)CC1 (centres undefined) | 91.2 |
| O=C1Nc2ccccc2C12CCN(CCN1CCC(c3ccc(F)cc3)CC1)C2 (centres undefined) | 189 |
| O=C1Nc2ccccc2C12CCN(CCN1CCN(c3ccc(Cl)c(Cl)c3)CC1)C2 (centres undefined) | 107 |
| O=C1Nc2ccccc2C12CCN(CCN1CCC(c3ccc(Cl)cc3)CC1)C2 (centres undefined) | 52.5 |
| O=C1Nc2ccccc2C12CCN(CCN1CCN(c3cccc(Cl)c3)CC1)C2 (centres undefined) | 48.9 |
| O=C1Nc2ccccc2C12CCN(CCN1CCN(c3ccccc3Cl)CC1)C2 (centres undefined) | 4.5 |
| O=C1Nc2ccccc2C12CCN(CCN1CC=C(c3ccc(F)cc3)CC1)C2 (centres undefined) | 91.8 |
| O=C1Nc2ccccc2C12CCN(CCN1CCN(c3ccccc3)CC1)C2 (centres undefined) | 60.1 |
| O=C1Nc2ccccc2C12CCN(CCN1CCN(c3ccc(F)cc3)CC1)C2 (centres undefined) | 674 |
| O=C1Nc2ccccc2C12CCN(CCN1CCN(c3ccc(Cl)cc3)CC1)C2 (centres undefined) | 130 |
